Measurements reported in ChEMBL document CHEMBL1131424 (J Med Chem, 1998).

Each compound was assayed against T1, 5-hydroxytryptamine receptor 1A (Rattus norvegicus, UniProt P19327) (assay: Binding affinity for rat cortex 5-hydroxytryptamine 1A receptor, by displacement of 0.2 nM [3H]8-OH-DPAT radioligand).
T1 sequence (P19327 whole entry): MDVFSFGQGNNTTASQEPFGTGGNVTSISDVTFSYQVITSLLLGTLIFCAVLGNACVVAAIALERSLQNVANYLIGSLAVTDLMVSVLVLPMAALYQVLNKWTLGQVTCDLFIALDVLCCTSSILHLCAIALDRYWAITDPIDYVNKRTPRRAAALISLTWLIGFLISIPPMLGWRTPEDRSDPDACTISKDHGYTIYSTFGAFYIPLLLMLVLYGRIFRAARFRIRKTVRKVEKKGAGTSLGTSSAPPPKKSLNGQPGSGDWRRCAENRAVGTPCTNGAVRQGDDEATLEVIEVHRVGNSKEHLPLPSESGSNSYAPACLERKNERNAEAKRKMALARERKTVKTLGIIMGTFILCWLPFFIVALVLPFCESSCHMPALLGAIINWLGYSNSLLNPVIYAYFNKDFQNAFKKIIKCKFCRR

| Structure (SMILES) | Ki [nM] |
| --- | --- |
| Cc1cccc(C(=O)N2CCC(CNCc3cccc(-n4cccn4)n3)CC2)c1 | 3.47 |
| O=C(c1ccc(Cl)cc1)N1CCC(CNCc2cccc(-n3cccn3)n2)CC1 | 49 |
| O=C(c1ccc(Cl)c(Cl)c1)N1CCC(CNCc2cccc(Cl)n2)CC1 | 4.57 |
| N#Cc1cccc(C(=O)N2CCC(CNCc3cccc(-n4cccn4)n3)CC2)c1 | 17.8 |
| N#Cc1cccc(CNCC2CCN(C(=O)c3ccc(Cl)c(Cl)c3)CC2)n1 | 50.1 |
| O=C(c1ccc(Cl)c(Cl)c1)N1CCC(CNCc2cccc(F)n2)CC1 | 8.91 |
| O=C(c1ccccc1)N1CCC(CNCc2cccc(-n3cccn3)n2)CC1 | 33.1 |
| O=C(c1ccc(Cl)c(Cl)c1)N1CCC(CNCc2cccc(-n3ccnc3)n2)CC1 | 7.41 |
| O=C(c1ccc(Cl)c(Cl)c1)N1CCC(CNCc2cccc(N3CCCC3)n2)CC1 | 1.58 |
| COc1cccc(CNCC2CCN(C(=O)c3ccc(Cl)c(Cl)c3)CC2)n1 | 3.47 |
| CC(C)c1cccc(CNCC2CCN(C(=O)c3ccc(Cl)c(Cl)c3)CC2)n1 | 0.631 |
| Cc1cccc(CNCC2CCN(C(=O)c3ccc(Cl)c(Cl)c3)CC2)n1 | 4.07 |
| O=C(c1ccc(Cl)c(Cl)c1)N1CCC(CNCc2cc(-n3cccn3)ccn2)CC1 | 646 |
| O=C(c1ccc(Cl)c(Cl)c1)N1CCC(CNCCc2cccc(-n3cccn3)n2)CC1 | 3.55 |
| CCOc1cccc(C(=O)N2CCC(CNCc3cccc(-n4cccn4)n3)CC2)c1 | 10.7 |
| O=C(c1ccccc1Cl)N1CCC(CNCc2cccc(-n3cccn3)n2)CC1 | 132 |
| O=S(=O)(c1ccc(Cl)c(Cl)c1)N1CCC(CNCc2cccc(-n3cccn3)n2)CC1 | 200 |
| Clc1ccc(CN2CCC(CNCc3cccc(-n4cccn4)n3)CC2)cc1Cl | 17.8 |
| O=C(c1ccc(F)c(Cl)c1)N1CCC(CNCc2cccc(-n3cccn3)n2)CC1 | 1.55 |
| NC(=O)c1cccc(CNCC2CCN(C(=O)c3ccc(Cl)c(Cl)c3)CC2)n1 | 46.8 |
| O=C(c1ccc(Cl)c(Cl)c1)N1CCC(CNCCc2ccncc2)CC1 | > 1000 |
| O=C(NCC#CCNCc1cccc(-n2cccn2)n1)c1ccc(Cl)c(Cl)c1 | 245 |
| CN(CCCCNCc1cccc(-n2cccn2)n1)C(=O)c1ccccc1 | 170 |

| Structure (SMILES) | Ki [nM] |
| --- | --- |
| Cn1c(=O)cnn(CCCCNCc2cccc(-n3cccn3)n2)c1=O | 110 |
| CCCN(C)c1cccc(CNCC2CCN(C(=O)c3ccc(Cl)c(Cl)c3)CC2)n1 | 11.7 |
| CCCN(CCC)Cc1cccc(-n2cccn2)n1 | > 10000 |
| CCCCOc1cccc(CNCC2CCN(C(=O)c3ccc(Cl)c(Cl)c3)CC2)n1 | 18.6 |
| O=C(C1CCCCC1)N1CCC(CNCc2cccc(-n3cccn3)n2)CC1 | 29.5 |
| COc1ccc2[nH]cc(CCNCc3cccc(-n4cccn4)n3)c2c1 | 661 |
| O=C(c1ccc(Cl)c(Cl)c1)N1CCC(CNCc2cccc(-n3cccc3)n2)CC1 | 4.27 |
| O=C(c1cccc(Cl)c1)N1CCC(CNCc2cccc(-n3cccn3)n2)CC1 | 2.29 |
| CN(C)c1cccc(CNCC2CCN(C(=O)c3ccc(Cl)c(Cl)c3)CC2)c1 | 75.9 |
| COC(=O)c1ccc(C(=O)N2CCC(CNCc3cccc(-n4cccn4)n3)CC2)cc1Cl | 166 |
| O=C(c1ccc(Cl)c(Cl)c1)N1CCC(CNCc2cccc(F)c2)CC1 | 14.8 |
| O=C(c1ccc(Cl)c(Cl)c1)N1CCC(CNCc2cccc(-n3cccc3)c2)CC1 | 295 |
| Cc1cccc(C(=O)NCCCCNCc2cccc(-n3cccn3)n2)c1 | 14.1 |
| O=C(c1cccc(C(F)(F)F)c1)N1CCC(CNCc2cccc(-n3cccn3)n2)CC1 | 3.55 |
| O=C(c1ccc(Cl)c(Cl)c1)N1CCC(CNCc2cccc(-c3ncc[nH]3)n2)CC1 | 2.69 |
| O=C(c1ccc(Cl)c(Cl)c1)N1CCC(CNCc2cccc(-n3cccn3)n2)CC1 | 1.66 |
| O=C(c1ccc(Cl)c(Cl)c1)N1CCC(CNCc2cccc(-c3cnco3)n2)CC1 | 0.933 |
| O=C(c1ccc(Cl)c(Cl)c1)N1CCC(CNCc2cccc(N3CCC3)n2)CC1 | 0.372 |
| O=C(c1cc(Cl)cc(Cl)c1)N1CCC(CNCc2cccc(-n3cccn3)n2)CC1 | 26.3 |
| O=C(c1ccc(Cl)c(Cl)c1)N1CCC(CNCCc2cccc(F)n2)CC1 | 3.16 |
| O=C(c1ccc(Cl)c(Cl)c1)N1CCC(CNCCCc2ccccn2)CC1 | 42.7 |
| O=C(N1CCC(CNCc2cccc(-n3cccn3)n2)CC1)C12C[C@H]3C[C@@H](C1)C[C@@H](C2)C3 | 13.2 |
| O=C(c1ccc(Cl)c(Cl)c1)N1CCC(CNCCc2ccccn2)CC1 | 1.2 |

| Structure (SMILES) | Ki [nM] |
| --- | --- |
| O=C(NCCNCc1cccc(-n2cccn2)n1)C12C[C@H]3C[C@@H](C1)C[C@@H](C2)C3 | 27.5 |
| COc1ccc(C(=O)N2CCC(CNCc3cccc(-n4cccn4)n3)CC2)cc1Cl | 9.12 |
| O=C(c1ccc(Cl)c(Cl)c1)N1CCC(CNCc2cc(Cl)ccn2)CC1 | 9.12 |
| Cc1ccc(C(=O)N2CCC(CNCc3cccc(-n4cccn4)n3)CC2)cc1Cl | 1.41 |
| O=C(c1ccc(Cl)c(Cl)c1)N1CCC(CNCc2cccc(-c3ccccc3)n2)CC1 | 7.41 |
| O=C(c1ccc(Cl)c(Cl)c1)N1CCCC(CNCc2cccc(-n3cccn3)n2)C1 (configuration not stated) | 407 |
| O=C(c1cccc(F)c1)N1CCC(CNCc2cccc(-n3cccn3)n2)CC1 | 13.5 |
| CSc1cccc(CNCC2CCN(C(=O)c3ccc(Cl)c(Cl)c3)CC2)n1 | 2.57 |
| C[S+]([O-])c1cccc(CNCC2CCN(C(=O)c3ccc(Cl)c(Cl)c3)CC2)n1 (configuration not stated) | 46.8 |
| O=C(c1ccc(Cl)c(Cl)c1)N1CCC(CNCc2cccc(-c3ccc[nH]3)n2)CC1 | 6.03 |
| O=C(c1ccc(Cl)c(Cl)c1)N1CCC(CNCc2cccc(-c3ccco3)n2)CC1 | 0.724 |
| Fc1ccc(C(CCCNCc2cccc(-n3cccn3)n2)c2ccc(F)cc2)cc1 | 151 |
| O=C(c1cccc(Cl)c1Cl)N1CCC(CNCc2cccc(-n3cccn3)n2)CC1 | 100 |
| O=C(c1ccc(Cl)c(Cl)c1)N1CCC(CNCc2cccc(-c3cccs3)n2)CC1 | 1.38 |
| CN(C)c1cccc(CNCC2CCN(C(=O)c3ccc(Cl)c(Cl)c3)CC2)n1 | 1.41 |
| O=C(c1ccc(Cl)c(Cl)c1)N1CCC(CNCCc2cccnc2)CC1 | 933 |
| O=C(c1ccc(Cl)c(Cl)c1)N1CCC(CNCc2cccnc2)CC1 | 417 |
| CNc1cccc(CNCC2CCN(C(=O)c3ccc(Cl)c(Cl)c3)CC2)n1 | 1.74 |
| O=C(c1ccc(Cl)c(Cl)c1)N1CCC(CNCc2cccc(-c3cc[nH]n3)n2)CC1 | 0.537 |
| O=C(c1ccc(Cl)c(Cl)c1)N1CCC(CNCc2cccc(-c3nccs3)n2)CC1 | 0.347 |
| O=C(c1ccc(Cl)c(Cl)c1)N1CCC(CNCc2ccccn2)CC1 | 26.3 |
